Paper PMC11672137, “High-Affinity Lectin Ligands Enable the Detection of Pathogenic Pseudomonas aeruginosa Biofilms: Implications for Diagnostics and Therapy” (JACS Au, 2024)

How the values were obtained:
[1] = target: T1, LecA (Pseudomonas aeruginosa, UniProt Q05097); assay: Competitive binding assay based on fluorescence polarization, LecA; conditions: LecA 20 µM, reporter ligand S38, 2% DMSO; read-out: IC50 (competitive binding, FP)
T1 construct: made in house
Experimental: Next, binding of the optimized divalent ligand 17 and its synthetic precursor 16 to LecA was evaluated by fluorescence polarization-based (FP) assays,[47] SPR, and ITC. […] Therefore, fluorescent ligand 17 was analyzed in a direct binding experiment by FP. […] The dissociation constants for 16 were 47.2 ± 11.3 nM (ITC) and 47.8 ± 44.1 nM (steady-state SPR), while for 17, the values were 64.1 ± 31.1 nM and 79.3 ± 24.9 nM (steady-state SPR). For the SPR experiments, Kd was also determined by single-cycle kinetic analysis resulting in approximately five times higher affinity, but the data have limited reliability due to suboptimal fit for the kinetic curves (Figures S13B and S14).[58]−[60] […]
137 mM NaCl, 2.6 mM KCl at pH 7.4 supplemented with 1 mM CaCl2). Protein concentration was determined by UV spectroscopy at 280 nm using a molar extinction coefficient of 27 960 M-1 cm-1 for LecA and 6 990 M-1 cm-1 for LecB.
All synthesized alkyne precursors (S5m, S5p, S6m, S6p, S11, 25, S16, S22 and S24) were analysed in the previously established competitive binding assays based on fluorescence polarization (Figure S2).18,19 Galactose-based compounds (S5m, S5p, S6m, S6p, S11) were evaluated against LecA and C-glycoside-based compounds […] and S16 against LecB. […]
PheraStar FS plate reader (BMG Labtech GmbH, Germany) with excitation filters at 485 nm and emission filters at 535 nm. […]

[2] = target: T1, LecA; conditions: read-out: Kd by ITC; cited from earlier work
[3] = test system: P. aeruginosa PAO1 biofilms; assay: In vitro biofilm staining under flow conditions, injection method; type: cell-based, Pseudomonas aeruginosa; conditions: 17 μM in channel, 10 min incubation, then flow 3 mL/h for 10-20 min
Experimental: (§1) P. aeruginosa biofilms were grown under flow conditions and observed by fluorescence microscopy in analogy to Ghanbari et al.[66] To this end, P. aeruginosa PAO1 expressing the red fluorescent protein mCherry[56] was diluted to an OD600 nm of 0.1 and injected into the microfluidics device. After a 30-min settling period, biofilms were grown under a constant laminar flow rate of 3 mL/h per channel. Following 48 h of incubation at 30 °C, dense and mature P. aeruginosa PAO1 biofilms were observed, which were then further used for analysis of the imaging probes.
Two different staining methods were evaluated for the imaging of P. aeruginosa PAO1 biofilms: (I) direct injection of the imaging compounds into the flow system or (II) compound supplementation into the medium and gradual accumulation at the biofilm (Figure S18). […] The flow of compounds 17 and 24 and their arrival in the flow cells were monitored using a fluorescence microscope attached to the flow system. […]
Figure 4 Staining of P. aeruginosa PAO1 biofilms under flow following the injection method. […] Pictures of the same aggregates were recorded prior to compound injection (t−10), during a 10 min incubation period without flow (t0) and during the wash period (constant flow, 3 mL/h) at different time points t5, t10, t15, and t20 (5, 10, 15, and 20 min) using a fluorescence microscope. […]

[4] = test system: P. aeruginosa PAO1 biofilms; assay: In vitro biofilm staining under flow conditions, compound supplementation to the medium; type: cell-based, Pseudomonas aeruginosa; conditions: 500 nM in medium, 4 h, 3 mL/h, fluorescence microscope
Experimental: as §1
To circumvent these technical drawbacks, the addition of compounds to the medium reservoir and retention at the biofilm was pursued. Imaging compounds were added to the medium reservoirs at a concentration of 500 nM, which were continuously pumped (3 mL/h) through the flow cell for 4 h. Compound accumulation at mature P. aeruginosa biofilms was immediately analyzed using fluorescence microscopy. Afterwards, the medium was exchanged, and the biofilms were washed for 30 min (3 mL/h, no compound) to monitor the retention (Figure 5). Furthermore, an analysis using CLSM was also performed after 4 h of accumulation without washing (Figures 5 and S22).
Figure 5 Staining of P. aeruginosa PAO1 biofilms grown under flow conditions with compound supplementation to the medium. Biofilm staining with (A) fluorescein divalent probe 17, (B) fluorescein control 24, (C) BODIPY divalent probe 19, and (D) BDP FL azide control 18 was monitored after 4 h of accumulation under constant flow (3 mL/h) of LB media containing 500 nM of respective compound. Retention of imaging compounds is shown after a subsequent wash period for 30 min with medium (3 mL/h, no compound). Images were recorded by using a fluorescence microscope. CLSM was performed for (E) BODIPY divalent probe 19 and the control (F) BDP FL azide 18 after 4 h of accumulation. Green signal originates from fluorescently labeled probes 17 and 19 and controls 24 and 18. P. aeruginosa constitutively expressing mCherry from pMP7605^56 is shown in red. Z-Stack size, 2 μm. Scale bar = 50 μm.
In vitro biofilm staining under flow conditions
The flow cell experiment was set up in analogy to Ghanbari et al. and in this study, optimized and established for biofilm staining.25 In principle, the experiment is based on an inlet connected to a medium source, a peristaltic pump providing constant medium flow, a flow chamber enabling analysis of bacterial growth and an outlet (waste container/bottle).
The medium used in the flow system was LB diluted by factor 5 containing 60 µg/mL
Gm. Silicone tubings 1.6 mm (ibidi, Germany) were used transporting medium from inlet to the peristaltic pump (Watson-Marlow Fluid Technology Solutions). Stopper hoses (CarlRoth) placed in peristaltic pump were coupled to silicone tubes via connectors (ibidi, Germany).
Stopper hoses are connected to bubble traps (obtained by Claus Sternberg, DTU Copenhagen) via 0.8 mm silicone tubing (ibidi, Germany). Bubble traps were used to remove air from the medium flow and to avoid biofilm disruption. Downstream from the bubble traps, the flow cell (μ-Slide VI 0.4 ibiTreat, ibidi, Germany) was placed into the system and connected to 1.6 mm silicone tubes (ibidi, Germany). The outlet is leading the medium from flow chamber to a waste […]
In order to inoculate the flow cell with P. aeruginosa PAO1 mCherry (pMP7605)23 the silicone tubes upstream and downstream of the flow chamber were pinched off by using commercial plastic clamps. The medium flow was stopped and the flow cell was inoculated by injecting 300 µL of the bacterial suspension (OD600nm of 0.1) into the silicone tubing upstream of the flow chamber. For this, a cannula (0.30 x 12 mm, Sterican) was used. The injection point was sealed with silicone glue. After bacterial settling time of 30 min, the flow was started again and clamps were removed. Growth temperature was regulated by using a heat system (ibidi, […]
Germany). […]

[5] = target: T2, LecB (Pseudomonas aeruginosa, UniProt Q9HYN5); assay: Competitive binding assay based on fluorescence polarization, LecB
T2 construct: made in house
T2 sequence (Q9HYN5 entry or part of it): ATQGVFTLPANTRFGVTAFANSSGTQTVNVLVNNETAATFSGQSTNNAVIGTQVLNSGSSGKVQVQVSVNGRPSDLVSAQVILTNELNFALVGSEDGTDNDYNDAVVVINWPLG
Experimental: LecA competitive binding assay was performed in presence of 2% DMSO, whereas LecB competitive binding assay had less than 0.5% DMSO present. In short, the compound dilution series were prepared in 96 well plates. 10 µL of each dilution in triplicates were mixed with 10 µL of master mix (40 µM LecA, 20 nM galactose-fluorescein reporter ligand S38 or 300 nM LecB and 20 nM S39 in TBS/Ca2+ buffer, Figure S3) in 384-well microtiter plates (Greiner Bio-One, Germany, cat no 781900). The plates were centrifuged (1 min, 500 g), sealed (EASYseal, Greiner Bio-One, cat no 676001) and incubated for 1 h in case of LecA and 6 h in case of LecB in a dark wet chamber under gentle shaking. Fluorescence was measured on a
PheraStar FS plate reader (BMG Labtech GmbH, Germany) with excitation filters at 485 nm and emission filters at 535 nm. The measured intensities were reduced by the blank values (protein in TBS/Ca2+ buffer) and analysed with MARS Data Analysis Software (BMG Labtech GmbH, Germany). IC50 values were determined by the four-parameter variable slope model with the minimum and maximum limits of the fit fixed according to the controls in each assay

T1 sequence (Q05097 whole entry): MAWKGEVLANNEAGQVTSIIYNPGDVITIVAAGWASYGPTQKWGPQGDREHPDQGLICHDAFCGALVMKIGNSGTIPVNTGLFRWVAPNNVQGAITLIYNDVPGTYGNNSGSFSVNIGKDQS

O=[N+]([O-])c1ccc(O[C@@H]2O[C@H](CO)[C@H](O)[C@H](O)[C@H]2O)cc1 [para-nitrophenyl β-D-galactoside]
IC50 [1]: 39.7 ± 11.5 µM

OC[C@H]1O[C@@H](Oc2ccccc2)[C@H](O)[C@@H](O)[C@H]1O [compound 1, phenyl β-D-galactoside]
Kd [2]: 8.8 µM

O=C1OC2(c3ccc(O)cc3Oc3cc(O)ccc32)c2ccccc21 [compound 24, fluorescein, reference compound]
Retention of fluorescence at biofilm during wash [3]: completely disappeared after 10 min | Biofilm staining after accumulation [4]: did not result in any observable staining

C#Cc1ccc(S(=O)(=O)NC[C@H]2O[C@@H](C)[C@@H](O)[C@@H](O)[C@@H]2O)s1 [compound 23]
IC50 [5]: 2.4 ± 0.5 µM
